Activity calls are given as the source filed them. The rule behind the calls is not given here.
What was measured:
[1] = target: T1, Tyrosine-protein phosphatase non-receptor type 1 (Mus musculus) (UniProt P35821); assay: Inhibition of PTP1B in differentiated mouse C2C12 cells assessed as upregulation of ACC phosphorylation at Ser-79 residue at 0.2 mM after 30 mins by Western blot assay
T1 sequence (whole entry): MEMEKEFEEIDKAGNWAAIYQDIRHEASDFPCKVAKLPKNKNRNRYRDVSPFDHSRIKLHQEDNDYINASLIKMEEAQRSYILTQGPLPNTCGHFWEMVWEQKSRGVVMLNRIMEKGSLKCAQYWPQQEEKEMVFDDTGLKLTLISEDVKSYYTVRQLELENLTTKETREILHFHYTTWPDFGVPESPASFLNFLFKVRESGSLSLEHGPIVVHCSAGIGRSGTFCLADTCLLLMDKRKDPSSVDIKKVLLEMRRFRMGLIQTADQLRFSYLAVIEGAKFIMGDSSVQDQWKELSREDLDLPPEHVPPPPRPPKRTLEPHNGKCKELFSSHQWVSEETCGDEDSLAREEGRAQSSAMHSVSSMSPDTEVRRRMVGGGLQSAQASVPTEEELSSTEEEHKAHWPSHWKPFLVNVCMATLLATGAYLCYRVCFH

[2] = test system: C2C12; assay: Cytotoxicity against mouse C2C12 cells assessed as reduction in cell viability at 20 uM after 24 hrs by MTT assay; format: cell-based; conditions: c2c12, 24 h
[3] = target: T1, Tyrosine-protein phosphatase non-receptor type 1 (Mus musculus); assay: Inhibition of PTP1B in differentiated mouse 3T3L1 cells assessed as increase in glucose uptake at 20 uM after 1 hr by […] staining based fluorescence microscopic assay
[4] = target: T1, Tyrosine-protein phosphatase non-receptor type 1 (Mus musculus); assay: Inhibition of PTP1B in differentiated mouse C2C12 cells assessed as upregulation of AMPKalpha phosphorylation at Thr-172 residue at 20 uM after 3 hrs by Western blot assay
[5] = target: T2, Tyrosine-protein phosphatase non-receptor type 1 (Homo sapiens, UniProt P18031); assay: Inhibition of recombinant human PTP1B using pNPP as substrate after 30 mins
T2 sequence (P18031 whole entry): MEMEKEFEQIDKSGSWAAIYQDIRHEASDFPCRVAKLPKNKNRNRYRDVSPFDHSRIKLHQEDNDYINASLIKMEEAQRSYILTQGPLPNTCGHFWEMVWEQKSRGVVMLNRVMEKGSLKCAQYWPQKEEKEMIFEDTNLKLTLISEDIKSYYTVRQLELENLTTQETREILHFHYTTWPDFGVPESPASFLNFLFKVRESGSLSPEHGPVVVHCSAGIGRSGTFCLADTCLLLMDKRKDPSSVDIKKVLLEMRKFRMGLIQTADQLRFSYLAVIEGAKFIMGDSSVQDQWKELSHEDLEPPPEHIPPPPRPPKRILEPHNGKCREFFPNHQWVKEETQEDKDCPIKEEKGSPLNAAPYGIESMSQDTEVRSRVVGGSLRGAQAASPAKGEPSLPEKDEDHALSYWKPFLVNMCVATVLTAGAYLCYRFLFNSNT

[6] = target: Mitogen-activated protein kinase 1 and 3 (ERK2 and ERK1) (Mus musculus) (UniProt P63085+Q63844); assay: Upregulation of ERK1/2 phosphorylation at p44 residue in differentiated mouse C2C12 cells at 10 to 20 uM preincubated for 2 hrs followed by insulin addition measured after 15 mins by Western blot assay
[7] = target: T1, Tyrosine-protein phosphatase non-receptor type 1 (Mus musculus); assay: Inhibition of PTP1B in differentiated mouse C2C12 cells assessed as upregulation of ACC phosphorylation at Ser-79 residue at 20 uM after 30 mins by Western blot assay
[8] = target: T1, Tyrosine-protein phosphatase non-receptor type 1 (Mus musculus); assay: Inhibition of PTP1B in differentiated mouse 3T3L1 cells assessed as increase in glucose uptake at 5 to 20 uM after 1 hr by 2-NBDG staining based fluorescence assay

Chain of Mitogen-activated protein kinase 1 and 3 (ERK2 and ERK1) (Mus musculus) (P63085 whole entry, looked up): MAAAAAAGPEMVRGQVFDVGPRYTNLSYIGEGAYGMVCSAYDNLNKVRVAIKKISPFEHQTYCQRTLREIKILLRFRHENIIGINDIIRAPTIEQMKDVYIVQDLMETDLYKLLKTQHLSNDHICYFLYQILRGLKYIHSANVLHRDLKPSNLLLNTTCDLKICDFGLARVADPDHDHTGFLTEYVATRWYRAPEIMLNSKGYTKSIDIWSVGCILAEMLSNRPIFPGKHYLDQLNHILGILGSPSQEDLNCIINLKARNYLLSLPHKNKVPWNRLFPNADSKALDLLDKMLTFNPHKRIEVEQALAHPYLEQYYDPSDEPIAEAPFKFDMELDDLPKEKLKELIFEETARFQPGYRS
Chain of Mitogen-activated protein kinase 1 and 3 (ERK2 and ERK1) (Mus musculus) (Q63844 whole entry, looked up): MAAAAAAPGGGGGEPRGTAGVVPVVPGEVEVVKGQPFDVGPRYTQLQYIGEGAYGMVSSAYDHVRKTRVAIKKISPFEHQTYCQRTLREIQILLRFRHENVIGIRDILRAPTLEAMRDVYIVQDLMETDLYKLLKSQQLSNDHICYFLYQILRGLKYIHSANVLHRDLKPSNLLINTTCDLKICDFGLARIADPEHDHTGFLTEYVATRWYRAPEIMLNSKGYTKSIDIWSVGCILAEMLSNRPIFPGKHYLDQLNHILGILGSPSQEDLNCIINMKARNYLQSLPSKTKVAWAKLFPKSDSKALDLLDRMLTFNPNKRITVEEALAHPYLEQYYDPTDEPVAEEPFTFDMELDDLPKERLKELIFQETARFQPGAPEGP

Structure (SMILES) | inhibition [1] | Activity [2] | inhibition [3] | inhibition [4] | IC50 [5] [µM] | Activity [6] | inhibition [7] | inhibition [8]
NC(=O)c1ncn([C@@H]2O[C@H](CO)[C@@H](O)[C@H]2O)c1N | Active |  |  |  |  |  |  | 
C=C1CC/C=C(\COC(C)=O)CC[C@@H](C(C)C)[C@@H](O)[C@@H]1O |  | Non-Toxic | Active | inactive | 7.3 | Active | Active | Active
CC1(C)[C@@H]2CC(=O)[C@@]1(C)C[C@@H]2O |  |  |  |  | 17.6 |  |  | 
CC1(C)C[C@@H]2C[C@](C)(O)C(=O)C=C1O2 |  |  |  |  | 27 |  |  | 
C=C(C)C1=CC[C@@]2(C)[C@H]1[C@H]1CC[C@@H]3[C@@]4(C)CC[C@H](OC(=O)CCCCCCCCCCCCCCC)C(C)(C)[C@@H]4CC[C@@]3(C)[C@]1(C)C[C@@H]2O |  | Non-Toxic | Active |  | 23.6 |  |  | Active

From ChEMBL document CHEMBL4043257, “PTP1B inhibitors from the seeds of Iris sanguinea and their insulin mimetic activities via AMPK and ACC phosphorylation” (Bioorg Med Chem Lett, 2017)
